We go through three compounds from PMC10650714, “Double Attack to Oxidative Stress in Neurodegenerative Disorders: MAO-B and Nrf2 as Elected Targets” (Molecules, 2023).

Assay [1] addresses T1, recombinant hMAO-B (Homo sapiens, UniProt P27338).
T1 construct: purchased Fluka-Sigma-Aldrich s.r.l; (Italy); host or cells: Baculovirus infected BT1 cells
T1 sequence (P27338 1-520): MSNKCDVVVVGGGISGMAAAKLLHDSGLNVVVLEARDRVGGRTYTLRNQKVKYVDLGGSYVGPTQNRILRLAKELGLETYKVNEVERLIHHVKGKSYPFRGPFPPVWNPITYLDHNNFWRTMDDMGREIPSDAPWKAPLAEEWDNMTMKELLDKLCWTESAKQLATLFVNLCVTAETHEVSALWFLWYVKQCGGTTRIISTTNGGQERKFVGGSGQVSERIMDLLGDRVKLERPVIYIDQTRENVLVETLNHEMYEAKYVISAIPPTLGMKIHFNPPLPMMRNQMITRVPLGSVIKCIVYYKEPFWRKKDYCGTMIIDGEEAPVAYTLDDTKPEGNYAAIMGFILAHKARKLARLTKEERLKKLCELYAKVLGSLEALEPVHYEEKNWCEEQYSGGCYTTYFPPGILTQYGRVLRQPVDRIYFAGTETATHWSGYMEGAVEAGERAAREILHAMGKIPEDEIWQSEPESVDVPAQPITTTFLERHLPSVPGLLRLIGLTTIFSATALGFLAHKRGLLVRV
Put plainly: hMAO-B activity assay (kynuramine, fluorimetric). It is filed as biochemical. The settings on record: for SI (selectivity index): calculated as hMAO-A Ki/hMAO-B Ki; for mechanism of hMAO-B inhibition: double reciprocal plots / global fit. As for the experimental part: Human recombinant hMAO-A and hMAO-B expressed in Baculovirus infected BT1 cells (5 mg/mL) and horseradish peroxidases were purchased from Fluka-Sigma-Aldrich s.r.l. (Italy). A Cary Eclipse fluorimeter (Varian Inc., Palo Alto, CA, USA) was used for fluorescence measurements. […] At first, the peroxidase-coupled continuous assay that detect the H2O2 generation rate was considered. It uses the Amplex Red reagent as the fluorogenic substrate for horseradish peroxidase.
By applying this method, hMAO activity assays were performed in K/Pi 0.1 M, EDTA 1 mM (total volume: 200 μL; pH 7.4, T = 37 °C), in the presence and in absence of various concentrations of the different compounds (0.2–20 μM and 2–50 μM in the case of hMAO–B and hMAO-A, respectively).
MAOs stock solutions were diluted with assay buffer in the presence or absence of the tested compound to obtain a final concentration of 0.005 mg/mL for MAO-A and 0.010 mg/mL for MAO-B; then, kynuramine (10–300 μM final concentration) was added to the assay solution. After 45–60 min of incubation at 37 °C, the reaction was stopped by the addition of 2 M NaOH (80 μL) and 480 μL of distilled water. Kynuramine deaminated by MAO spontaneously cyclizes to provide 4-hydroxyquinoline, the amount of which was determined by the fluorescence intensity of the peak of its emission spectra (λexc = 330 nm and λem 330–530 nm). Then, the rate of reaction was calculated using a specific calibration curve (in the presence of the same amount of the tested compound) built with the standard 4-hydroxyquinoline.
Under these experimental conditions, the Michaelis–Menten equation for rate of reaction, can be simplified as follows: V ≈ (Vmax/KM) [E]0[S]0 [49]. In the presence of an inhibitor, one or both the kinetic parameters, KM and Vmax, might be affected by its presence, depending on the inhibition mechanism. In particular, in the presence of a reversible inhibitor, both the kinetic parameters could be affected, and the apparent kinetic parameter would then become: KM I = KM,0 (1 + [I]/Ki)/(1 + [I]/(αKi)), and VmaxI = Vmax0/(1 + [I]/(αKi)), where α is the factor indicating how much the dissociation constant of the enzyme-substrate-I complex is different from that of the enzyme–I complex (also named Ki). Consequently, the ratio of the initial rate of reaction in the absence (Vo) and in the presence (VI) of the tested compound (Vo/VI) can be simplified to the ratio of (Vmax/KM)o/(Vmax/KM)I ≈ (1 + [I]/Ki).
To study the mechanism of inhibition, the steady-state kinetic parameters (Vmax and Km) of MAO-A and MAO-B were determined by performing experiments at different substrate concentrations and in the absence and presence of different concentrations of the tested compound. Vmax and Km were calculated by fitting the Michaelis–Menten equation to the experimental data (initial rate of reactions vs. substrate concentrations), with Sigma Plot software, version 9.0 (Jandel Scientific, San Rafael, CA, USA).

The test system of assay [2] is Nrf2 nuclear translocation in SH-SY5Y cells. Put plainly: Nrf2 nuclear translocation (Western blot of nuclear extracts). It counts as cell-based, human. From the text: In physiological conditions, the repressor Keap1 traps Nrf2 at the cytosolic level, preventing the activation of Nrf2 pathway. The disruption of Keap1–Nrf2 interaction allows for Nrf2 nuclear translocation, thus resulting in the transcriptional activation of its target cytoprotective genes. […] We and others have previously developed several compounds bearing caffeic and ferulic fragments able to activate Nrf2 in terms of the up-regulation of Nrf2 expression, translocation into the nucleus and induction of the Nrf2-dependent defensive genes, with (pro)electrophilic features emerging as key players. Herein, to analyse the effect of the new molecules on the Nrf2 downstream cascade, the ability of compounds 1–5 to increase Nrf2 nuclear translocation was preliminary evaluated as a pivotal step in Nrf2 signalling activation (Figure 6). Based on MAO-B inhibitory potency and cell toxicity assay, compounds were studied in SH-SY5Y human neuroblastoma cells at the concentration of 5 μM. Given the high structural analogy with our derivatives, we selected the well-known Nrf2 inducer CAPE [37, 38] as the reference compound, and verified its ability to induce Nrf2 nuclear translocation at different concentrations, ranging from 5 µM to 50 µM in our experimental model (Figure S6). Nrf2 nuclear content was assessed via Western blot analysis. […] Consistently, data from literature highlight discrepancies about pioglitazone-mediated Nrf2 activation, indicating its ability to activate Nrf2 in longer timeframes and different in vitro and in vivo experimental conditions. […] The preliminary docking performed on human Keap-1 confirms the excellent positioning of compound 2 within the BTB domain pocket, where cysteine 151 is located (see Figure S5). […] Particularly, all these new molecules hold the characteristic (pro)electrophilic fragments, which however, in this case, resulted to be insufficient to activate Nrf2, as reported for other ferulic and caffeic derivatives. In this regard, optimal target interaction might play a major role, but further biological investigations are needed to fully clarify the mechanism of Nrf2 activation and the effect on the downstream expression of cytoprotective genes.
SH-SY5Y cells (5 × 106) were seeded in […] dishes and treated for 3 h with 5 μM compounds; afterward, the medium was removed, and cells were washed twice with ice-cold PBS. Cells were subsequently homogenized 15 times using a glass−glass Dounce homogenizer in 0.32 M sucrose, buffered with 20 mM Tris- HCl (pH 7.4), containing 2 mM EDTA, 0.5 mM EGTA, 50 mM β-mercaptoethanol and 20 μg/mL leupeptin, apotrinin and pepstatin. The homogenate was centrifuged at 300× g for 5 min to obtain the nuclear fraction. An aliquot of the nuclear fraction was used for protein assay via the Bradford method, whereas the remaining was boiled for 5 min after dilution with sample buffer and subjected to polyacrylamide gel electrophoresis and immunoblotting, as described.

Values joined by “and” are separate entries in the source; they are usually repeats but may differ in a detail not shown here. Identical values can stand only once. “Also recorded” adds a separate entry of the source. Like-named read-outs stand apart in the source and are kept apart here.

`O=C(/C=C/c1ccc(O)c(O)c1)OCCc1ccccc1` [CAPE, caffeic acid phenethyl ester, reference compound]: the “SI (selectivity index)” value in assay [1] is listed as 6.7. In addition, the Ki in assay [1] (hMAO-B Ki, kynuramine [S] = 10 µM, pH 7.4, 37 °C, mean ± S.D.) was found to be 1800 ± 200 nM. The Nrf2 nuclear translocation result in assay [2] (5 µM and 20 µM, 3 h) was “induced Nrf2 nuclear translocation”.

As for `O=C(/C=C/c1ccc(O)c(O)c1)Oc1ccc(CC2SC(=O)NC2=O)cc1` (centres unmarked) [Compound 2, 4-((2,4-Dioxothiazolidin-5-yl)methyl)phenyl (E)-3-(3,4-Dihydroxyphenyl)acrylate], in assay [1], the “SI (selectivity index)” value is 66. Also, in assay [1], the “mechanism of hMAO-B inhibition” value was “mixed inhibition”. Moreover, the Ki in assay [1] (global fit analysis, mixed inhibition model, read-out: KEI (inhibition constant for the free enzyme)) is 450 ± 800 nM; in assay [1] (kynuramine [S] = 10 µM, pH 7.4, 37 °C, mean ± S.D., read-out: hMAO-B Ki) it was 500 nM and 530 nM; in assay [1] (read-out: hMAO-B Ki) it was 530 nM. Moreover, the Nrf2 nuclear translocation result in assay [2] (5 μM, 3 h) is reported as “most active; also recorded: strongly induced Nrf2 translocation into the nucleus”.

In the case of `CCc1ccc(CCOc2ccc(CC3SC(=O)NC3=O)cc2)nc1` (centres unmarked) [Pioglitazone, reference compound], in assay [1], the “mechanism of hMAO-B inhibition” value was “selective and competitive inhibitor”. For the same compound, the Nrf2 nuclear translocation entry in assay [2] (until concentrations higher than 50 µM) is given as “not able to induce Nrf2 nuclear translocations”.
